# Source: ChEMBL document CHEMBL3137667, “[Drug-induced liver injury; fourteenth updated edition of the bibliographic database of liver injuries and related drugs]” (Gastroenterol Clin Biol, 2004)
# Key:
# [1] = Highest frequency of acute liver toxicity observed during clinical trials, expressed as a percentage. [column '% AIGUE' in source]; settings: human
# [2] = human
# [3] = human; remark: listed apart in the source
# [4] = human; remark: listed apart in the source
# [5] = human; remark: listed apart in the source
# [6] = Highest frequency of moderate liver toxicity observed during clinical trials, expressed as a percentage. [column '% BIOL' in source]; settings: human
# [7] = human; remark: listed apart in the source
# [8] = human; remark: listed apart in the source
# [9] = human, serum
# [10] = human; remark: listed apart in the source
# [11] = human, serum, 4383 h
# [12] = human; remark: listed apart in the source
# [13] = human; remark: listed apart in the source
# [14] = human, serum; remark: listed apart in the source
# 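Throughout, for Hepatotoxicity (association with vascular disease): count of indexed literature references reporting vascular liver injury in humans, e.g. peliosis hepatitis, hepatic veno-occlusive disease or Budd-Chiari syndrome.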
# 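Throughout, for Hepatotoxicity (benign tumour): value is a count of indexed literature references citing a benign tumour confirmed by histopathology.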
# 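Throughout, for Hepatotoxicity (choleostasis): human cholestatic liver injury, shown by histopathology or by peak ALT or AST elevation over alkaline phosphatase ratio below 2, value counts indexed literature reports.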
# 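Throughout, for Hepatotoxicity (chronic liver disease): chronic liver injury confirmed by histopathology or persistently raised serum aminotransferase activity beyond 6 months, value given as the count of indexed literature references.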
# 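Throughout, for Hepatotoxicity (cirrhosis): value is a count of indexed literature references reporting cirrhosis confirmed by histopathology.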
# 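Throughout, for Hepatotoxicity (cytolytic): human cytolytic liver injury, shown by histopathology or by a ratio above 5 of peak ALT or AST elevation to alkaline phosphatase elevation, value counts indexed references.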
# 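Throughout, for Hepatotoxicity (granulomatous hepatitis): value is a count of indexed literature references reporting granulomatous liver disease confirmed by histopathology.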
# 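Throughout, for Hepatotoxicity (malignant tumour): malignant tumour confirmed by histopathology, value gives the count of indexed literature references reporting it.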
# 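Throughout, for Hepatotoxicity (severe hepatitis): human clinical data: severe hepatitis, meaning potentially life-threatening liver failure or clinically observed cases, the value counts how many indexed literature references report it.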
# 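Throughout, for Hepatotoxicity (steatosis): steatosis confirmed by histopathology, value is the count of indexed references.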
Molecule,Hepatotoxicity (acute) [1] [%],Hepatotoxicity (choleostasis) [2],Hepatotoxicity (steatosis) [3],Hepatotoxicity (malignant tumour) [4],Hepatotoxicity (granulomatous hepatitis) [5],Hepatotoxicity (moderate) [6] [%],Hepatotoxicity (cirrhosis) [7],Hepatotoxicity (association with vascular disease) [8],Hepatotoxicity (acute) [9],Hepatotoxicity (cytolytic) [10],Hepatotoxicity (chronic liver disease) [11],Hepatotoxicity (benign tumour) [12],Hepatotoxicity (severe hepatitis) [13],Hepatotoxicity (moderate) [14],Hepatotoxicity (acute) ([1]; Liver) [%],Hepatotoxicity (choleostasis) ([2]; Liver),Hepatotoxicity (granulomatous hepatitis) ([5]; Liver),Hepatotoxicity (moderate) ([6]; Liver) [%],Hepatotoxicity (cytolytic) ([10]; Liver),Hepatotoxicity (severe hepatitis) ([13]; Liver)
CCCC[C@@H]1CC(=O)[C@]2(O)O[C@@H]3[C@@H](NC)[C@@H](O)[C@@H](NC)[C@H](O)[C@H]3O[C@@H]2O1 [TROSPECTOMYCIN],0,0,0,0,0,33.3,0,0,0,0,0,0,0,2,–,–,–,–,–,–
Oc1ccc(Cl)cc1Cc1cc(Cl)ccc1O [DICHLOROPHEN],0,1,0,0,0,0,0,0,2,2,0,0,0,0,–,–,–,–,–,–
CCC(C)C(C)(COC(N)=O)COC(N)=O (centres undefined) [MEBUTAMATE],0,1,0,0,0,0,0,0,1,0,0,0,0,0,–,–,–,–,–,–
Oc1ccc2[nH]cc(CCCCN3CC=C(c4ccccc4)CC3)c2c1 [ROXINDOLE],0,0,0,0,0,10,0,0,0,0,0,0,0,1,–,–,–,–,–,–
Nc1ncn([C@@H]2O[C@H](CO)[C@@H](O)[C@@H]2O)c(=O)n1 [FAZARABINE],–,–,0,0,–,–,0,0,0,–,0,0,–,1,0,0,0,46.4,0,0
CN(C)CCC=C1c2ccccc2C=Cc2ccccc21 [CYCLOBENZAPRINE],–,–,0,0,–,–,0,0,1,–,0,0,–,1,0,0,0,0,0,0
CC(N)C12CC3CC(CC(C3)C1)C2 (centres undefined) [RIMANTADINE],0,0,0,0,0,1.8,0,0,0,0,0,0,0,1,–,–,–,–,–,–
N[C@H](Cc1cc(I)c(Oc2cc(I)c(O)c(I)c2)c(I)c1)C(=O)O [DEXTROTHYROXINE],0,0,0,0,0,40.2,0,0,0,0,0,0,0,1,–,–,–,–,–,–
Cc1cccc(Nc2cc(Cl)nc(SCC(=O)NCCO)n2)c1C [PIRINIXIL],0,0,0,0,0,0,0,0,0,0,0,0,0,1,–,–,–,–,–,–
NCCCC(N)(C(=O)O)C(F)F (centres undefined) [EFLORNITHINE],0,0,0,0,0,0,0,0,0,0,0,0,0,1,–,–,–,–,–,–
CC(C)CN(C[C@@H](O)[C@H](Cc1ccccc1)NC(=O)O[C@H]1CCOC1)S(=O)(=O)c1ccc(N)cc1,10.7,0,0,0,0,0,0,0,3,3,0,0,0,0,–,–,–,–,–,–
Cc1cnc(NCCCN(C)C)c2c1[nH]c1ccc3cc(O)ccc3c12 [INTOPLICINE],3.8,0,0,0,0,0,0,0,1,0,0,0,0,0,–,–,–,–,–,–
INTERLEUKIN 1BETA,0,0,0,0,0,75,0,0,0,0,0,0,0,1,–,–,–,–,–,–
CNC(=O)[C@@H](NC(=O)[C@H](CC(C)C)[C@H](O)C(=O)NO)C(C)(C)C,0,0,0,0,0,0,0,0,0,0,0,0,0,1,–,–,–,–,–,–
CCNC(=O)[C@@H]1CCCN1C(=O)[C@H](CCCNC(=N)N)NC(=O)[C@H](CC(C)C)NC(=O)[C@@H](CC(C)C)NC(=O)[C@H](Cc1ccc(O)cc1)NC(=O)[C@H](CO)NC(=O)[C@H](Cc1c[nH]c2ccccc12)NC(=O)[C@H](Cc1c[nH]cn1)NC(=O)[C@@H]1CCC(=O)N1 [LEUPROLIDE],0,0,0,0,0,2.4,0,0,0,0,0,0,0,3,–,–,–,–,–,–
OC(CCCN1CCCCC1)(c1ccccc1)c1ccccc1 [DIPHENIDOL],0,0,0,0,0,0,0,0,1,0,0,0,0,0,–,–,–,–,–,–
